Test results as given in paper PMC5867665, “Targeting Multiple Effector Pathways in Pancreatic Ductal Adenocarcinoma with a G-Quadruplex-Binding Small Molecule” (Journal of Medicinal Chemistry, 2018).

System: MIA PaCa-2 pancreatic tumor xenograft
Assay: Subcutaneous MIA PaCa-2 pancreatic tumor xenograft therapy study
Assay type: in vivo
Details: for tumor regrowth after dosing stopped: 15 mg/kg, from day 28 onward
Method: To determine if the in vitro activity of CM03 was paralleled in vivo, we explored the activity of CM03 in a mouse xenograft model of PDAC. We have previously reported that the maximum tolerated dosage (MTD) for intravenous (IV) administration of MM41 is 25 mg/kg.[33] CM03 was well tolerated, up to a dosage of 45–50 mg/kg, as judged by a dose-escalation MTD study. A therapeutic schedule of two CM03 intravenous (IV) doses was explored using a subcutaneous MIA PaCa-2 pancreatic tumor xenograft model derived from the human cell line used in the cell growth inhibition studies. A group size of eight CD-1 nude mice was used, and dosing was conducted at 10 and 15 mg/kg, each twice weekly, over a period of 4 weeks (28 days: 8 doses). Two further groups were given either MM41 or gemcitabine at 15 mg/kg and received the same dose regimen. […] IVIS imaging of treated mice was performed by taking account of the intrinsic fluorescence of CM03. […] Thus, in contrast to MM41 and gemcitabine, the higher-dose CM03 treatment results in a statistically significant (p < 0.001) antitumor effect, which persisted long after dosing had ceased, up to the termination of the xenograft experiment (62 days).
For therapy studies, female CD-1 nude mice (2–3 months old, weighing 20–25 g) were injected subcutaneously with 5 × 10^6 MIA PaCa-2 cells in the right flank (unsupplemented RPMI + Matrigel). When the tumors were established (approximately 13 days, mean size 0.05 cm^3), the mice were divided into five treatment groups with eight mice/group. The MM41 and CM03 samples were dissolved directly in saline to the required concentrations and administered IV. Tumor size was measured weekly by calliper using the π-based ellipsoid volume formula (length × width × height × π/6) every 3–4 days, and the mice were also weighed and examined at the same time to determine any signs of toxicity from the drug.
• Group 1:15 mg/kg of gemcitabine (Sigma), twice weekly dose. • Group 2:15 mg/kg of MM41, twice weekly dose. • Group 3:10 mg/kg of CM03, twice weekly dose. • Group 4:15 mg/kg of CM03, twice weekly dose. • Group 5: saline only, twice weekly dose.
The xenograft data was analyzed using Student’s t test (GraphPad Inc.). Responses were considered to be significant for those with probabilities (p) less than 5% (p < 0.05). Mice were culled if there was any sign of tumor ulceration, if tumor volume exceeded 1.5 cm^3, or if a weight loss over 20% of initial body weight was observed. Samples of liver, kidney, and spleen from each animal in the CM03 (15 mg/kg) and untreated control groups were excised at the end of the therapy experiment, then fixed in 10% neutral buffered formalin for at least 48 h prior to processing and paraffin embedding. Tissue slices were stained with hematoxylin and eosin and assessed visually for any obvious differences compared with controls, indicative of toxicity and tissue damage. For the imaging study mice were anesthetized using isoflurane and imaged using the IVIS preclinical imaging system from PerkinElmer. Images were captured after 4 h following intravenous administration of CM03 using Cy5.5 excitation for 5 s.

[1] = 15 mg/kg IV twice weekly for 28 days

Compound	MTV ± SEM (Day 62) (10 mg/kg IV twice weekly for 28 days) [cm^3]	IVIS imaging, accumulation in tumor xenograft (10 mg/kg, 4 h after IV administration)	MTV ± SEM (Day 29) [1] [cm^3]	MTV ± SEM (Day 62) [1] [cm^3]	animals with tumor volumes that shrank to <0.05 cm^3 by day 62 (15 mg/kg cohort)	body weight and adverse effects (15 mg/kg cohort, any time during the study)	tumor regrowth after dosing stopped	histopathological analysis of vital organs (animals sacrificed at the end of the experiments)
O=C1c2ccc3c4c(c(NCCN5CCCC5)cc(c24)C(=O)N1CCCN1CCOCC1)C(=O)N(CCCN1CCOCC1)C3=O [CM03, 2,7-bis(3-morpholinopropyl)-4-((2-(pyrrolidin-1-yl)ethyl)amino)benzo[lmn][3,8]phenanthroline-1,3,6,8(2H,7H)-tetraone]	0.29 ± 0.10	significant accumulation of CM03 in the tumor xenograft	0.04 ± 0.02	0.09 ± 0.05	Five out of the eight	No body weight reduction	no tumor regrowth was observed	no sign of organ damage
Nc1ccn([C@@H]2O[C@H](CO)[C@@H](O)C2(F)F)c(=O)n1 [gemcitabine, reference compound]			0.05 ± 0.02	0.23 ± 0.10			tumor regrowth being apparent as soon as dosing was stopped	
